Test results as given in patent US20050008596A1, “Composition containing an oxidation-sensitive active principle and a polyisobutylene polymer” (L'OREAL, priority 2003, published 2005).

Test: Accelerated storage test: decomposition of ascorbic acid in the composition after two months at 45° C., HPLC
Assay type: physicochemical
Settings: formulated in the presence of Lubrizol 5603, compared with conventional emulsifier; even in the presence of oxygen
Method: The aim of this test is to study the decomposition of an oxidation-sensitive hydrophilic active principle in a composition, after storage for two months at 45° C.
The degree of decomposition measured is given by the ratio: (C0-C2 months)/C0 with C0 being the concentration of ascorbic acid at t=0 and C2 months being the concentration of ascorbic acid at t=2 months.
The concentration of ascorbic acid is determined by the HPLC technique (Merck LaChrom system). The analytical conditions are as follows: • Column: Lichrosphere 100 RP18 (250 mm) • Eluant: 0.1M phosphate buffer, pH 2.1 • Flow rate: 1 ml/min • Detection at 257 nm. • Dilution of the sample such that the concentration of ascorbic acid is between 0.05 and 1 mg/ml.
The test was carried out with the composition Example 1, and with the composition of Comparative Example 1 which contains, instead of the polymer according to the invention, a conventionally used emulsifier, cyclopentasiloxane and PEG/PPG-18/18 dimethicone.

O=C1O[C@H]([C@@H](O)CO)C(O)=C1O [ascorbic acid]
Increase of stability of the ascorbic acid: 50%
